The source of these data is BindingDB's records for PubMed 11504829 (University of Melbourne, 2001).

Experiment [1] addresses T1, Muscarinic acetylcholine receptor M1 (Homo sapiens, UniProt P11229).
T1 sequence (P11229 whole entry): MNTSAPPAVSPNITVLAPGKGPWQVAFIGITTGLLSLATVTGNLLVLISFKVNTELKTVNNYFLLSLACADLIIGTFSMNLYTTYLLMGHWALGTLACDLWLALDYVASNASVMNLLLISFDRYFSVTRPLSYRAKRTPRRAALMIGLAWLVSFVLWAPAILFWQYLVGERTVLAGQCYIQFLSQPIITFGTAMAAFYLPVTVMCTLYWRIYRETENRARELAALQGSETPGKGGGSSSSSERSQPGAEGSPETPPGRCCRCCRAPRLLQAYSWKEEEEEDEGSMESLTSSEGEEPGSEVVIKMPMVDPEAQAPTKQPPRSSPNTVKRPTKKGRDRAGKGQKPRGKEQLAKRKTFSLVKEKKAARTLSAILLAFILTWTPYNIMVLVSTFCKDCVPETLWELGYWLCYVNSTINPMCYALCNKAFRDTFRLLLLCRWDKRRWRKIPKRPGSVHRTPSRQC

The target of experiment [2] is T2, Muscarinic acetylcholine receptor M5 (Homo sapiens, UniProt P08912).
T2 sequence (P08912 whole entry): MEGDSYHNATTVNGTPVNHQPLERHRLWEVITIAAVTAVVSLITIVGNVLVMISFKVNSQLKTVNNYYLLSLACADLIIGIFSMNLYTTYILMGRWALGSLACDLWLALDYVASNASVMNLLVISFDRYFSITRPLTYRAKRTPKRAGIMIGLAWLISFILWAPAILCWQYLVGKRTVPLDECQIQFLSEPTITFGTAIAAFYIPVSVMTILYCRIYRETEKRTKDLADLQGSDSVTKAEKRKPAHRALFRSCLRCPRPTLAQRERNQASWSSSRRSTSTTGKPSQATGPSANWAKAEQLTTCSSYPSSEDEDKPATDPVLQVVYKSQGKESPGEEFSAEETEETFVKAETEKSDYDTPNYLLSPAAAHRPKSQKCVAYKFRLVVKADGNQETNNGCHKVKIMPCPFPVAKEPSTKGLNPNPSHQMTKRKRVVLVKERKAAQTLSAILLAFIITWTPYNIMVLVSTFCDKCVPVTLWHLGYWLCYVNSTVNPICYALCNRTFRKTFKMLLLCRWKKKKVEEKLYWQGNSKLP

Experiment [3] has as its target T3, Muscarinic acetylcholine receptor M4 (Homo sapiens, UniProt P08173).
T3 sequence (P08173 whole entry): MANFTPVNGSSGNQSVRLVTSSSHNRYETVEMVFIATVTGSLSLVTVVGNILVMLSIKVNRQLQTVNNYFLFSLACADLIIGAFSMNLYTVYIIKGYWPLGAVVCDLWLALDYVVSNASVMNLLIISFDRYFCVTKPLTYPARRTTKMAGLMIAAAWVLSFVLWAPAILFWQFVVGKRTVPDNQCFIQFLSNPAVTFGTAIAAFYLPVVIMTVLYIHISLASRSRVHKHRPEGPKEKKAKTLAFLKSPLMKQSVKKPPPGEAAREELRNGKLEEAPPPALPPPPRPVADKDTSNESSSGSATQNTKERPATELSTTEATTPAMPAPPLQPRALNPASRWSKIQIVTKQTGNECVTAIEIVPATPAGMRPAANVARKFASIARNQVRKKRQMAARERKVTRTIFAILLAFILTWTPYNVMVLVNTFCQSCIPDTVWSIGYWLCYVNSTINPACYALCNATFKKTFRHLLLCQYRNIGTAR

Experiment [4] concerns the target T4, Muscarinic acetylcholine receptor M2 (Homo sapiens, UniProt P08172).
T4 sequence (P08172 whole entry): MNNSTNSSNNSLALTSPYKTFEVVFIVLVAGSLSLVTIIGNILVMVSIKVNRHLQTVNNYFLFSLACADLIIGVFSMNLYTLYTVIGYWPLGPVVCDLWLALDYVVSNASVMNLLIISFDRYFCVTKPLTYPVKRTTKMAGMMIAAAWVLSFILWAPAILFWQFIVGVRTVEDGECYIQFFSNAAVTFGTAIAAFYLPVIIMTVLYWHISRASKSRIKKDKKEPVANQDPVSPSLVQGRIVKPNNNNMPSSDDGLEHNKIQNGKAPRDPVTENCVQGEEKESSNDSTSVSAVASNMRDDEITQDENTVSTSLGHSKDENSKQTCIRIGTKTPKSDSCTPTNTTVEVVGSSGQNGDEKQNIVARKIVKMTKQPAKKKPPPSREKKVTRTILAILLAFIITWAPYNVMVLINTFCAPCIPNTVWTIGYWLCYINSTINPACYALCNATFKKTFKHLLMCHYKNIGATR

Experiment [5] concerns the target Muscarinic acetylcholine receptor M3 (Homo sapiens, UniProt P20309).
The target in experiment [6] is T5, Muscarinic acetylcholine receptor M2 (Rattus norvegicus, UniProt P10980).
T5 sequence (P10980 whole entry): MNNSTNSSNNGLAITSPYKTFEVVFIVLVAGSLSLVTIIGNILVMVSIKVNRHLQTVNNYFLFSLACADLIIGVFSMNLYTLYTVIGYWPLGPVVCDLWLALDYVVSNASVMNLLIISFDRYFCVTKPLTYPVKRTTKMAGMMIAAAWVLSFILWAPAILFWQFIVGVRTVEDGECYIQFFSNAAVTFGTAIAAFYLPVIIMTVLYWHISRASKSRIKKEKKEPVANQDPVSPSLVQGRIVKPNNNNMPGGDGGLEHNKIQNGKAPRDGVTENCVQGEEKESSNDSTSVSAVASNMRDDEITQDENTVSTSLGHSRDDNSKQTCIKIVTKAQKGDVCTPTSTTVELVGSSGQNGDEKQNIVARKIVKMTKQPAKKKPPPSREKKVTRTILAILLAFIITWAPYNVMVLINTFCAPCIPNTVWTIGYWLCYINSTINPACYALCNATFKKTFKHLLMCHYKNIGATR

Broadly, the Ki is a dissociation constant, usually derived from enzyme kinetics or from competition with a known ligand. A low value points to higher affinity.

The structures appear in SMILES notation.

Chain of Muscarinic acetylcholine receptor M3 (P20309 whole entry): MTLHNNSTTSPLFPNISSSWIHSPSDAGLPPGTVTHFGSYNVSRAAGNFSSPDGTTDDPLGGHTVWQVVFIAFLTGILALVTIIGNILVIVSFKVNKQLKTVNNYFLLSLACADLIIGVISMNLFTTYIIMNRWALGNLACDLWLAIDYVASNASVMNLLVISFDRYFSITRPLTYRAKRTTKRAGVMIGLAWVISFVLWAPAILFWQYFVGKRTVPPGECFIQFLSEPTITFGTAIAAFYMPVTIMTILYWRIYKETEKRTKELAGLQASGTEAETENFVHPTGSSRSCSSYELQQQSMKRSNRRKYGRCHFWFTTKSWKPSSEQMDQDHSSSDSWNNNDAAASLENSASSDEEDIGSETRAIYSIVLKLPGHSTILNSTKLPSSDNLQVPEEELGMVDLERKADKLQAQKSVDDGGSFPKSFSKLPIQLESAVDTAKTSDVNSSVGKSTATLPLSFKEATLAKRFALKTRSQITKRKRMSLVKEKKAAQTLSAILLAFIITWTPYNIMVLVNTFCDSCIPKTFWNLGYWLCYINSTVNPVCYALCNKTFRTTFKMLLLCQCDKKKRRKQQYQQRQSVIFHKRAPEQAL

Take `C(#Cc1ccccc1)COc1nsnc1C1CN2CCC1CC2` (stereo unspecified): the Ki came out at 41.7 nM in experiment [1]; 14.8 nM in experiment [2]; 49 nM in experiment [3]; 58.9 nM in experiment [4]; 77.6 nM in experiment [5].
Take `C(#Cc1ccc(C#CCOc2nsnc2C2CN3CCC2CC3)cc1)COc1nsnc1C1CN2CCC1CC2` (stereo unspecified) [NNC 11-1585]: the Ki amounted to 0.129 nM in experiment [1]; 5.25 nM in experiment [2]; 2.57 nM in experiment [3]; 0.079 nM in experiment [4]; 4.68 nM in experiment [5].
For `C(#Cc1cccc(C#CCOc2nsnc2C2CN3CCC2CC3)c1)COc1nsnc1C1CN2CCC1CC2` (stereo unspecified) [NNC 11-1607], the Ki in experiment [1] was 2.4 nM; in experiment [2] it was 6.03 nM; in experiment [6], 9.55 nM; in experiment [3] it was 8.13 nM; in experiment [4], 5.75 nM; in experiment [5], 8.13 nM.
